Measured values published in patent US20250368595A1, “NOVEL MOLECULES” (XENIOPRO GmbH, priority 2018, published 2025).

Assays:
23132/87 cells = experiment: alamarBlue proliferation assay with 23132/87 cells; type: cell-based, human; conditions: relative to DMSO basis level 1.0
Text: (§1) The antiproliferative activities of compounds falling under formula (Ia), (Ib) and (Ic), respectively, were investigated on cells or cell lines originating from a disorder of the haematopoietic system, including the myeloid cell compartment and the lymphoid cell compartment (T-cells and B-cells), the neuroendocrine system, the cervix, the breast, the ovaries, the lung, the gastrointestinal tract, and the mucosal epithelium, as well as from the skin epithelium and from the muscle. To this end, HL-60 cells, NB-4 cells, HH cells, RPMI-8402 cells, TANQUE cells, TT cells, HeLa cells, MDA-MB-231 cells, FU-OV-1 cells, LOU-NH91 cells, 23132/87 cells, CAL-27 cells, BHY cells, SCC-25 cells, A-431 cells, human primary epidermal keratinocytes (HPEK), and C2C12 cells were seeded into 96-well plates suitable for fluorescence assays (CORNING #3598) at following initial cell numbers: 1000 cells per well for HL-60; 1000 cells per well for NB-4; 5000 cells per well for HH; 5000 cells per well for RPMI-8402; 1500 cells per well for TANOUE; 9000 cells per well for TT; 2000 cells per well for HeLa; 3000 cells per well for MDA-MB-231; 3000 cells per well for FU-OV-1; 4000 cells per well for LOU-NH91; 2000 cells per well for 23132/87; 2000 cells per well for CAL-27; 1500 cells per well for BHY; 1500 cells per well for SCC-25; 700 cells per well for A-431; 1000 cells per well for HPEK; 500 cells per well for C2C12. […] The readout was taken with a multi-well plate-reader in the fluorescence mode with applying a filter for excitation at 560 nm (band width 10 nm) and for emission at 590 nm (band width 10 nm). […]
(§2) The assays were performed in duplicate or more replicates of independent single experiments each containing a six-fold replicate for every condition. For every individual plate, the measured fluorescence intensity values of the conditions with compound treatment were normalized • against the corresponding equally weighted arithmetic mean of the fluorescence intensity values of the six DMSO treated control wells in order to obtain the relative values to a baseline level of 1.0. […]

HPEKp cells = experiment: alamarBlue proliferation assay with HPEKp cells; type: cell-based, human
Text: as §1, §2

MDA-MB-231 cells = experiment: alamarBlue proliferation assay with MDA-MB-231 cells; type: cell-based, human; conditions: 20 μM, relative to DMSO basis level 1.0
Text: The antiproliferative activities of compounds falling under formula (Ia), (Ib) and (Ic), respectively, were investigated on cells or cell lines originating from a disorder of the haematopoietic system, including the myeloid cell compartment and the lymphoid cell compartment (T-cells and B-cells), the neuroendocrine system, the cervix, the breast, the ovaries, the lung, the gastrointestinal tract, and the mucosal epithelium, as well as from the skin epithelium and from the muscle. […] The readout was taken with a multi-well plate-reader in the fluorescence mode with applying a filter for excitation at 560 nm (band width 10 nm) and for emission at 590 nm (band width 10 nm). […]
as §2

NB-4 cells = experiment: alamarBlue proliferation assay with NB-4 cells; type: cell-based, human; conditions: relative to DMSO basis level 1.0
Text: as §1, §2

A-431 cells = experiment: alamarBlue proliferation assay with A-431 cells; type: cell-based, human
Text: as §1, §2

C2C12 cells = experiment: alamarBlue proliferation assay with C2C12 cells; type: cell-based, murine
Text: as §1, §2

TANOUE cells = experiment: alamarBlue proliferation assay with TANOUE cells; type: cell-based, human; conditions: relative to DMSO basis level 1.0
Text: as §1, §2

LOU-NH91 cells = experiment: alamarBlue proliferation assay with LOU-NH91 cells; type: cell-based, human; conditions: relative to DMSO basis level 1.0
Text: as §1, §2

HeLa cells = experiment: alamarBlue proliferation assay with HeLa cells; type: cell-based, human; conditions: relative to DMSO basis level 1.0
Text: as §1, §2

HL-60 cells = experiment: alamarBlue proliferation assay with HL-60 cells; type: cell-based, human; conditions: relative to DMSO basis level 1.0
Text: as §1, §2

FU-OV-1 cells = experiment: alamarBlue proliferation assay with FU-OV-1 cells; type: cell-based, human; conditions: relative to DMSO basis level 1.0
Text: as §1, §2

HH cells = experiment: alamarBlue proliferation assay with HH cells; type: cell-based, human; conditions: relative to DMSO basis level 1.0
Text: as §1, §2

CAL-27 cells = experiment: alamarBlue proliferation assay with CAL-27 cells; type: cell-based, human; conditions: relative to DMSO basis level 1.0
Text: as §1, §2

TT cells = experiment: alamarBlue proliferation assay with TT cells; type: cell-based, human; conditions: relative to DMSO basis level 1.0
Text: as §1, §2

BHY cells = experiment: alamarBlue proliferation assay with BHY cells; type: cell-based, human; conditions: relative to DMSO basis level 1.0
Text: as §1, §2

SCC-25 cells = experiment: alamarBlue proliferation assay with SCC-25 cells; type: cell-based, human
Text: as §1, §2

RPMI-8402 cells = experiment: alamarBlue proliferation assay with RPMI-8402 cells; type: cell-based, human; conditions: relative to DMSO basis level 1.0
Text: as §1, §2

Structure (SMILES)	Activity Range: weighted arithmetic mean (AVEw) of normalized fluorescence intensity (23132/87 cells; 20 μM)	Activity Range: weighted arithmetic mean (AVEw) of normalized fluorescence intensity, relative to DMSO basis level of 1.0 (HPEKp cells; control at 20 μM)	Activity Range: weighted arithmetic mean (AVEw) of normalized fluorescence intensity (MDA-MB-231 cells)	Activity Range: weighted arithmetic mean (AVEw) of normalized fluorescence intensity (NB-4 cells; 20 μM)	Activity Range: weighted arithmetic mean (AVEw) of normalized fluorescence intensity, relative to DMSO basis level of 1.0 (A-431 cells; 20 μM)	Activity Range: weighted arithmetic mean (AVEw) of normalized fluorescence intensity, relative to DMSO basis level of 1.0 (C2C12 cells; 20 μM)	Activity Range: weighted arithmetic mean (AVEw) of normalized fluorescence intensity (TANOUE cells; 20 μM)	Activity Range: weighted arithmetic mean (AVEw) of normalized fluorescence intensity (LOU-NH91 cells; 20 μM)	Activity Range: weighted arithmetic mean (AVEw) of normalized fluorescence intensity (HeLa cells; 20 μM)	Activity Range: weighted arithmetic mean (AVEw) of normalized fluorescence intensity (HL-60 cells; 20 μM)	Activity Range: weighted arithmetic mean (AVEw) of normalized fluorescence intensity (FU-OV-1 cells; 20 μM)	Activity Range: weighted arithmetic mean (AVEw) of normalized fluorescence intensity (HH cells; 20 μM)	Activity Range: weighted arithmetic mean (AVEw) of normalized fluorescence intensity (CAL-27 cells; 20 μM)	Activity Range: weighted arithmetic mean (AVEw) of normalized fluorescence intensity (TT cells; 20 μM)	Activity Range: weighted arithmetic mean (AVEw) of normalized fluorescence intensity (BHY cells; 20 μM)	Activity Range: weighted arithmetic mean (AVEw) of normalized fluorescence intensity, relative to DMSO basis level of 1.0 (SCC-25 cells; 20 μM)	Activity Range: weighted arithmetic mean (AVEw) of normalized fluorescence intensity (RPMI-8402 cells; 20 μM)	further results
CN(Cc1cnc2nc(N)nc(N)c2n1)c1ccc(C(=O)N[C@@H](CCC(=O)O)C(=O)O)cc1 [MTREX, Methotrexate]	0.3 ± 0.0	0.9 ± 0.0	0.6 ± 0.0	0.1 ± 0.0	0.2 ± 0.1	0.1 ± 0.0	0.1 ± 0.0	0.5 ± 0.1	0.4 ± 0.0	0.1 ± 0.1	1.0 ± 0.0	0.4 ± 0.1	0.1 ± 0.0	1.0 ± 0.0	0.3 ± 0.0	0.5 ± 0.1	0.1 ± 0.0	
Oc1ccc(C=Cc2cc(O)cc(O)c2)cc1 [RES, Resveratrol]	0.5 ± 0.1	0.2 ± 0.0	0.6 ± 0.0	0.1 ± 0.0	0.6 ± 0.1	0.8 ± 0.0	0.1 ± 0.0	0.9 ± 0.1	0.9 ± 0.0	0.4 ± 0.1	0.7 ± 0.0	0.6 ± 0.1	0.8 ± 0.1	0.9 ± 0.0	0.5 ± 0.1	0.4 ± 0.1	0.6 ± 0.0	Activity Range: weighted arithmetic mean (AVEw) of normalized fluorescence intensity (23132/87 cells; control at 40 μM): 0.2 ± 0.0; Activity Range: weighted arithmetic mean (AVEw) of normalized fluorescence intensity, relative to DMSO basis level of 1.0 (HPEKp cells; control at 40 μM): 0.2 ± 0.0; Activity Range: weighted arithmetic mean (AVEw) of normalized fluorescence intensity (NB-4 cells; control at 40 μM): 0.0 ± 0.0; Activity Range: weighted arithmetic mean (AVEw) of normalized fluorescence intensity, relative to DMSO basis level of 1.0 (A-431 cells; control at 40 μM): 0.2 ± 0.0; Activity Range: weighted arithmetic mean (AVEw) of normalized fluorescence intensity, relative to DMSO basis level of 1.0 (C2C12 cells; control at 40 μM): 0.2 ± 0.1; Activity Range: weighted arithmetic mean (AVEw) of normalized fluorescence intensity (TANOUE cells; control at 40 μM): 0.0 ± 0.0; Activity Range: weighted arithmetic mean (AVEw) of normalized fluorescence intensity (LOU-NH91 cells; control at 40 μM): 0.7 ± 0.0; Activity Range: weighted arithmetic mean (AVEw) of normalized fluorescence intensity (HeLa cells; control at 40 μM): 0.4 ± 0.1; Activity Range: weighted arithmetic mean (AVEw) of normalized fluorescence intensity (HL-60 cells; control at 40 μM): 0.2 ± 0.1; Activity Range: weighted arithmetic mean (AVEw) of normalized fluorescence intensity (FU-OV-1 cells; control at 40 μM): 0.4 ± 0.0; Activity Range: weighted arithmetic mean (AVEw) of normalized fluorescence intensity (HH cells; control at 40 μM): 0.4 ± 0.1; Activity Range: weighted arithmetic mean (AVEw) of normalized fluorescence intensity (CAL-27 cells; control at 40 μM): 0.4 ± 0.3; Activity Range: weighted arithmetic mean (AVEw) of normalized fluorescence intensity (TT cells; control at 40 μM): 0.7 ± 0.0; Activity Range: weighted arithmetic mean (AVEw) of normalized fluorescence intensity (BHY cells; control at 40 μM): 0.3 ± 0.0; Activity Range: weighted arithmetic mean (AVEw) of normalized fluorescence intensity, relative to DMSO basis level of 1.0 (SCC-25 cells; control at 40 μM): 0.1 ± 0.0; Activity Range: weighted arithmetic mean (AVEw) of normalized fluorescence intensity (RPMI-8402 cells; control at 40 μM): 0.1 ± 0.0
